Source: patent US6063778A, “Cephalosporin derivatives and processes for the preparation thereof” (Il-Dong Pharm. Co., Ltd., priority 1995, dated 2000)
Values after ≈ are worked out from the molar mass of the structure shown. Like-named read-outs stand apart in the source and are kept apart here.

Key:
[1] = Acute toxicity study; assay type: in vivo; details: mouse, in vivo
Description: In order to illustrate usefulness of the compounds of the present invention, acute toxicity test of the compounds synthesized in the above Examples were carried out. Each dose of the compounds dissolved in saline and buffer solution (PH=7.0) was administered by intravenous or subcutaneous injection. Mortalities of the animals was recorded seven days latter.
.asterisk-pseud. Mouse: Male ICR strain, 4 weeks

[2] = tested on: Staphylococcus aureus, Escherichia coli and Pseudomonas aeruginosa; test: MIC by agar dilution, comparison in words; assay type: cell-based; details: against Staphylococcus aureus, vs Cefotaxime
Description: (§1) These MIC values were determined by agar dilution method: that is, two-fold dilutions of each of the test compounds were made and dispersed in a Mueller-Hinton Broth medium. Standard test strain which had the 10^6 CFU per ml was inoculated on the medium, and was incubated at 37° C. for 18 to 20 hours.

[3] = tested on: Pseudomonas aeruginosa 1771; test: MIC by agar dilution, in vitro activity test; assay type: cell-based; details: 37° C., 18 to 20 hours, read-out: Minimal Inhibitory Concentration (MIC)
Description: These MIC values were determined by agar dilution method: that is, two-fold dilutions of each of the test compounds were made and dispersed in a Mueller-Hinton Broth medium.

[4] = tested on: Staphylococcus aureus 285; test: MIC by agar dilution, in vitro activity test; assay type: cell-based; details: 37° C., 18 to 20 hours, read-out: Minimal Inhibitory Concentration (MIC)
Description: as §1

[5] = tested on: Pseudomonas aeruginosa 1592E; test: MIC by agar dilution, in vitro activity test; assay type: cell-based; details: 37° C., 18 to 20 hours, read-out: Minimal Inhibitory Concentration (MIC)
Description: as §1

[6] = tested on: Streptococcus pyogenes 77A; test: MIC by agar dilution, in vitro activity test; assay type: cell-based; details: 37° C., 18 to 20 hours, read-out: Minimal Inhibitory Concentration (MIC)
Description: as §1

[7] = tested on: Staphylococcus aureus 503; test: MIC by agar dilution, in vitro activity test; assay type: cell-based; details: 37° C., 18 to 20 hours, read-out: Minimal Inhibitory Concentration (MIC)
Description: as §1

[8] = tested on: Escherichia coli DC 0; test: MIC by agar dilution, in vitro activity test; assay type: cell-based; details: DC0, 37° C., 18 to 20 hours, read-out: Minimal Inhibitory Concentration (MIC)
Description: as §1

[9] = tested on: Escherichia coli 078; test: MIC by agar dilution, in vitro activity test; assay type: cell-based; details: 37° C., 18 to 20 hours, read-out: Minimal Inhibitory Concentration (MIC)
Description: as §1

[10] = tested on: Enterobacter cloace P99; test: MIC by agar dilution, in vitro activity test; assay type: cell-based; details: P99, 20 h, read-out: Minimal Inhibitory Concentration (MIC)
Description: as §1

[11] = tested on: Escherichia coli 1507E; test: MIC by agar dilution, in vitro activity test; assay type: cell-based; details: read-out: Minimal Inhibitory Concentration (MIC)
Description: as §1

[12] = tested on: Klebsiella aerogenes 1082E; test: MIC by agar dilution, in vitro activity test; assay type: cell-based; details: 37° C., 18 to 20 hours, read-out: Minimal Inhibitory Concentration (MIC)
Description: as §1

[13] = tested on: Escherichia coli TEM; test: MIC by agar dilution, in vitro activity test; assay type: cell-based; details: 20 h, read-out: Minimal Inhibitory Concentration (MIC)
Description: as §1

[14] = tested on: Staphylococcus aureus SG511; test: MIC by agar dilution, in vitro activity test; assay type: cell-based; details: 37° C., 18 to 20 hours, read-out: Minimal Inhibitory Concentration (MIC)
Description: as §1

[15] = tested on: Enterobacter cloace 1321E; test: MIC by agar dilution, in vitro activity test; assay type: cell-based; details: 37° C., 18 to 20 hours, read-out: Minimal Inhibitory Concentration (MIC)
Description: as §1

[16] = tested on: Escherichia coli DC 2; test: MIC by agar dilution, in vitro activity test; assay type: cell-based; details: DC2, 37° C., 18 to 20 hours, read-out: Minimal Inhibitory Concentration (MIC)
Description: as §1

[17] = tested on: Streptococcus faecium MD 8b; test: MIC by agar dilution, in vitro activity test; assay type: cell-based; details: Enterococcus faecium, MD8B, read-out: Minimal Inhibitory Concentration (MIC)
Description: as §1

[18] = tested on: Pseudomonas aeruginosa 9027; test: MIC by agar dilution, in vitro activity test; assay type: cell-based; details: 37° C., 18 to 20 hours, read-out: Minimal Inhibitory Concentration (MIC)
Description: as §1

[19] = tested on: Pseudomonas aeruginosa 1771M; test: MIC by agar dilution, in vitro activity test; assay type: cell-based; details: 20 h, read-out: Minimal Inhibitory Concentration (MIC)
Description: as §1

[20] = tested on: Salmonella typhimurium; test: MIC by agar dilution, in vitro activity test; assay type: cell-based; details: Salmonella enterica, 37° C., 18 to 20 hours, read-out: Minimal Inhibitory Concentration (MIC)
Description: as §1

[21] = tested on: Klebsiella aerogenes 1522E; test: MIC by agar dilution, in vitro activity test; assay type: cell-based; details: read-out: Minimal Inhibitory Concentration (MIC)
Description: as §1

[22] = tested on: Pseudomonas aeruginosa 9071; test: MIC by agar dilution, in vitro activity test; assay type: cell-based; details: 37° C., 18 to 20 hours, read-out: Minimal Inhibitory Concentration (MIC)
Description: as §1

[23] = tested on: Streptococcus pyogenes 71A; test: MIC by agar dilution, in vitro activity test; assay type: cell-based; details: 37° C., 18 to 20 hours, read-out: Minimal Inhibitory Concentration (MIC)
Description: as §1

[24] = iv, i.v, male ICR mouse, 4 weeks, mortality at seven days, read-out: LD50 i.v
[25] = iv, intravenous routes, read-out: acute toxicity in intravenous routes
[26] = sc, s.c, male ICR mouse, 4 weeks, mortality at seven days, read-out: LD50 s.c
[27] = Escherichia coli 1507E, agar dilution, 37° C., 18 to 20 hours
[28] = Klebsiella aerogenes 1522E, agar dilution, 37° C., 18 to 20 hours

SMILES | LD50 at 168 h [1, 24] [mg/kg] | MIC [3] [µg/mL] | MIC [4] [µg/mL] | MIC [5] [µg/mL] | MIC [6] [µg/mL] | MIC [7] [µg/mL] | MIC [8] [µg/mL] | MIC [9] [µg/mL] | MIC [10] [µg/mL] | MIC [11, 27] [µg/mL] | MIC [12] [µg/mL] | MIC [13] [µg/mL] | MIC [14] [µg/mL] | MIC [15] [µg/mL] | MIC [16] [µg/mL] | MIC ([17]; 20 h) [µg/mL] | MIC [18] [µg/mL] | MIC [19] [µg/mL] | MIC [20] [µg/mL] | MIC [21, 28] [µg/mL] | also measured
CC[N+](C)(CC=CC(N)=O)C/C=C/C1=C(C(=O)[O-])N2C(=O)[C@@H](NC(=O)/C(=N\OC)c3csc(N)n3)[C@H]2SC1 (stereo partly drawn) [Example 6, 7β-[(Z)-2-(2-aminothiazol-4-yl)-2-methoxyiminoacetamido]-3-[(E)-3-[(1-carbamoyl-1-propen-3-yl)-3-ethylmethylammonio]-1-propen-1-yl]3-cephem-4-carboxylate] | > 3000 | 3.1 (≈ 5.5 µM) | 0.4 (≈ 0.71 µM) | 3.1 (≈ 5.5 µM) | 0.012 (≈ 0.0213 µM) | 0.8 (≈ 1.42 µM) | < 0.006 | 0.12 (≈ 0.213 µM) | 1.6 (≈ 2.84 µM) | 0.05 (≈ 0.0887 µM) | 3.1 (≈ 5.5 µM) | 0.05 (≈ 0.0887 µM) | 0.8 (≈ 1.42 µM) | 0.025 (≈ 0.0444 µM) | 0.05 (≈ 0.0887 µM) | > 100 | 6.3 (≈ 11.2 µM) | 0.4 (≈ 0.71 µM) | 0.1 (≈ 0.177 µM) | 0.1 (≈ 0.177 µM) | LD50 at 168 h [1, 25]: > 2000 mg/kg; LD50 at 168 h [1, 26]: > 3000 mg/kg; MICs compared with Cefotaxime [2]: superior to that of Cefotaxime
CO/N=C(\C(=O)N[C@@H]1C(=O)N2C(C(=O)[O-])=C(/C=C/C[N+](C)(C)Cc3nc[nH]c3C)CS[C@H]12)c1csc(N)n1 [Example 2, 7β-[(Z)-2-(2-aminothiazol-4-yl)-2-methoxyiminoacetamido]-3-[(E)-3-[(5-methylimidazol-4-yl)-methyldimethylammonio]-1-propen-1-yl]3-cephem-4-carboxylate] | > 2000 |  |  |  |  |  |  |  |  |  |  |  |  |  |  |  |  |  |  |  | LD50 at 168 h [1, 25]: > 2000 mg/kg; LD50 at 168 h [1, 26]: > 3000 mg/kg
Cc1ncsc1C[N+](C)(C)C/C=C/C1=C(C(=O)[O-])N2C(=O)[C@@H](NC(=O)/C(=N\OCCF)c3nsc(N)n3)[C@H]2SC1 [Example 14, 7β-[(Z)-2-(5-amino-1,2,4-thiadiazol-3-yl)-2-fluoroethoxyiminoacetamido]-3-[(E)-3-[(4-methylthiazol-5-yl)-methyldimethylammonio]-1-propen-1-yl]3-cephem-4-carboxylate] |  | 3.1 (≈ 5.08 µM) | 0.8 (≈ 1.31 µM) | 3.1 (≈ 5.08 µM) |  | 0.8 (≈ 1.31 µM) | < 0.006 | 0.012 (≈ 0.0196 µM) | 0.4 (≈ 0.655 µM) |  | 3.1 (≈ 5.08 µM) | 0.025 (≈ 0.0409 µM) | 0.4 (≈ 0.655 µM) | 0.012 (≈ 0.0196 µM) | 0.05 (≈ 0.0819 µM) | > 100 |  | 0.4 (≈ 0.655 µM) | 0.1 (≈ 0.164 µM) |  | MICs compared with Cefotaxime [2]: superior to that of Cefotaxime; MIC ([11]; Escherichia coli, 1507E, 20 h): 0.025 µg/mL (≈ 0.0409 µM); MIC [22]: 12.5 µg/mL (≈ 20.5 µM); MIC [23]: 0.05 µg/mL (≈ 0.0819 µM); MIC ([21]; Klebsiella aerogenes, 1522E, 20 h): 0.025 µg/mL (≈ 0.0409 µM)
CO/N=C(\C(=O)N[C@@H]1C(=O)N2C(C(=O)[O-])=C(/C=C/C[N+](C)(C)Cc3scnc3C)CS[C@H]12)c1csc(N)n1 [Example 1, 7β-[(Z)-2-(2-aminothiazol-4-yl)-2-methoxyiminoacetamido]-3-[(E)-3-[(4-methylthiazol-5-yl)-methyldimethylammonio]-1-propen-1-yl]3-cephem-4-carboxylate] | > 3000 | 6.3 (≈ 10.9 µM) | 0.4 (≈ 0.692 µM) | 3.1 (≈ 5.37 µM) | 0.006 (≈ 0.0104 µM) | 0.8 (≈ 1.38 µM) | 0.025 (≈ 0.0433 µM) | < 0.006 | 0.4 (≈ 0.692 µM) | 0.025 (≈ 0.0433 µM) | 6.3 (≈ 10.9 µM) | 0.05 (≈ 0.0865 µM) | 0.4 (≈ 0.692 µM) | 0.012 (≈ 0.0208 µM) | 0.05 (≈ 0.0865 µM) |  | 12.5 (≈ 21.6 µM) | 0.4 (≈ 0.692 µM) | 0.1 (≈ 0.173 µM) | 0.05 (≈ 0.0865 µM) | LD50 at 168 h [1, 25]: > 2000 mg/kg; LD50 at 168 h [1, 26]: > 4000 mg/kg; LD50 at 168 h ([1]; sc, subcutaneous routes, read-out: acute toxicity in subcutaneous routes): > 3000 mg/kg; MICs compared with Cefotaxime [2]: superior to that of Cefotaxime; MIC ([17]; Streptococcus faecium MD 8b, agar dilution, 37° C., 18 to 20 hours): 50 µg/mL (≈ 86.5 µM)
CO/N=C(\C(=O)N[C@@H]1C(=O)N2C(C(=O)[O-])=C(C[n+]3cccc4c3CCC4)CS[C@H]12)c1csc(N)n1 [CPR, Cefpirome, reference compound] |  | 3.1 (≈ 6.02 µM) | 0.4 (≈ 0.777 µM) | 3.1 (≈ 6.02 µM) | 0.012 (≈ 0.0233 µM) | 0.8 (≈ 1.55 µM) | 0.012 (≈ 0.0233 µM) | 0.025 (≈ 0.0486 µM) | 3.1 (≈ 6.02 µM) | 0.025 (≈ 0.0486 µM) | 6.3 (≈ 12.2 µM) | 0.05 (≈ 0.0972 µM) | 0.8 (≈ 1.55 µM) | 0.025 (≈ 0.0486 µM) | 0.1 (≈ 0.194 µM) | 100 (≈ 194 µM) | 6.3 (≈ 12.2 µM) | 0.8 (≈ 1.55 µM) | 0.1 (≈ 0.194 µM) | 0.1 (≈ 0.194 µM) | MIC [22]: 6.3 µg/mL (≈ 12.2 µM); MIC [23]: 0.012 µg/mL (≈ 0.0233 µM)
CO/N=C(\C(=O)N[C@@H]1C(=O)N2C(C(=O)O)=C(COC(C)=O)CS[C@H]12)c1csc(N)n1 [CTX, Cefotaxime, reference compound] |  |  | 1.6 (≈ 3.51 µM) | 25 (≈ 54.9 µM) | 0.012 (≈ 0.0263 µM) | 3.1 (≈ 6.81 µM) | 0.012 (≈ 0.0263 µM) | 0.025 (≈ 0.0549 µM) | > 100 | 0.025 (≈ 0.0549 µM) | 6.3 (≈ 13.8 µM) | 0.05 (≈ 0.11 µM) | 1.6 (≈ 3.51 µM) | 0.05 (≈ 0.11 µM) | 0.05 (≈ 0.11 µM) | > 100 | 25 (≈ 54.9 µM) | 0.4 (≈ 0.878 µM) | 0.1 (≈ 0.22 µM) | 0.1 (≈ 0.22 µM) | MIC [22]: 25 µg/mL (≈ 54.9 µM); MIC [23]: 0.012 µg/mL (≈ 0.0263 µM)
